PubChem BioAssay (NCI)
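Following 48 hours of exposure in 96-well plates, responses at five concentrations were used to interpolate endpoints linearly. GI50 is the concentration that inhibits growth by half. TGI: concentration producing complete growth inhibition.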

Experiments:
Assay in all cases: NCI tumour cell line growth inhibition, 48 h
[1] = test system: SR leukemia
[2] = test system: MDA-MB-231 breast
[3] = test system: NCI-H460 lung
[4] = test system: HCT-116 colon
[5] = test system: SF-295 CNS
[6] = test system: SK-MEL-5 melanoma
[7] = test system: MOLT-4 leukemia
[8] = test system: HCT-15 colon
[9] = test system: MDA-MB-468 breast
[10] = test system: SF-539 CNS
[11] = test system: DU-145 prostate
[12] = test system: LOX IMVI melanoma
[13] = test system: NCI-H226 lung
[14] = test system: HS 578T breast
[15] = test system: SW-620 colon
[16] = test system: OVCAR-8 ovarian
[17] = test system: ACHN renal
[18] = test system: CAKI-1 renal
[19] = test system: NCI-H522 lung
[20] = test system: RXF 393 renal
[21] = test system: OVCAR-3 ovarian
[22] = test system: CCRF-CEM leukemia
[23] = test system: MDA-MB-435
[24] = test system: MCF7 breast
[25] = test system: 786-0 renal
[26] = test system: NCI/ADR-RES ovarian
[27] = test system: RPMI-8226 leukemia
[28] = test system: SF-268 CNS
[29] = test system: MALME-3M melanoma
[30] = test system: SK-OV-3 ovarian
[31] = test system: OVCAR-5 ovarian
[32] = test system: A498 renal
[33] = test system: HOP-62 NSCLC
[34] = test system: BT-549 breast
[35] = test system: HT29 colon
[36] = test system: TK-10 renal
[37] = test system: SK-MEL-28 melanoma
[38] = test system: EKVX NSCLC
[39] = test system: UACC-257 melanoma
[40] = test system: T-47D breast
[41] = test system: HL-60(TB) leukemia
[42] = test system: NCI-H23 lung
[43] = test system: SNB-75 CNS
[44] = test system: SNB-19 CNS
[45] = test system: U251 CNS
[46] = test system: SK-MEL-2 melanoma
[47] = test system: KM12 colon
[48] = test system: IGROV1 ovarian
[49] = test system: K-562 leukemia
[50] = test system: PC-3 prostate
[51] = test system: SN12C renal
[52] = test system: OVCAR-4 ovarian
[53] = test system: HCC-2998 colon
[54] = test system: HOP-92 NSCLC
[55] = test system: COLO 205 colon
[56] = test system: UO-31 renal
[57] = test system: UACC-62 melanoma
[58] = test system: M14 melanoma

O=C(NN1C(=O)/C(=C/C=C/c2ccc([N+](=O)[O-])o2)SC1=S)c1ccc(Cl)cc1
GI50 [1]: 45.4 nM
TGI [1]: > 100000 nM
GI50 [2]: 180 nM
TGI [2]: 341 nM
GI50 [3]: 252 nM
TGI [3]: 648 nM
GI50 [4]: 84.8 nM
TGI [4]: 253 nM
GI50 [5]: 1740 nM
TGI [5]: 3280 nM
GI50 [6]: 214 nM
TGI [6]: 500 nM
GI50 [7]: 397 nM
TGI [7]: 13600 nM
GI50 [8]: 64.7 nM
TGI [8]: 208 nM
GI50 [9]: 1480 nM
TGI [9]: 3090 nM
GI50 [10]: 202 nM
TGI [10]: 401 nM
GI50 [11]: 614 nM
TGI [11]: 1550 nM
GI50 [12]: 219 nM
TGI [12]: 496 nM
GI50 [13]: 247 nM
TGI [13]: 601 nM
GI50 [14]: 1350 nM
TGI [14]: 4550 nM
GI50 [15]: 143 nM
TGI [15]: 310 nM
GI50 [16]: 245 nM
TGI [16]: 774 nM
GI50 [17]: 288 nM
TGI [17]: 780 nM
GI50 [18]: 346 nM
TGI [18]: 1140 nM
GI50 [19]: 180 nM
TGI [19]: 353 nM
GI50 [20]: 239 nM
TGI [20]: 837 nM
GI50 [21]: 268 nM
TGI [21]: 747 nM
GI50 [22]: 316 nM
TGI [22]: 9260 nM
GI50 [23]: 203 nM
TGI [23]: 446 nM
GI50 [24]: 293 nM
TGI [24]: 1440 nM
GI50 [25]: 241 nM
TGI [25]: 550 nM
GI50 [26]: 493 nM
TGI [26]: 2000 nM
GI50 [27]: 318 nM
TGI [27]: 2180 nM
GI50 [28]: 1530 nM
TGI [28]: 4110 nM
GI50 [29]: 186 nM
TGI [29]: 347 nM
GI50 [30]: 1710 nM
TGI [30]: 3180 nM
GI50 [31]: 734 nM
TGI [31]: 2000 nM
GI50 [32]: 4200 nM
TGI [32]: 9700 nM
GI50 [33]: 780 nM
TGI [33]: 2120 nM
GI50 [34]: 225 nM
TGI [34]: 519 nM
GI50 [35]: 221 nM
TGI [35]: 475 nM
GI50 [36]: 1470 nM
TGI [36]: 2920 nM
GI50 [37]: 356 nM
TGI [37]: 1100 nM
GI50 [38]: 285 nM
TGI [38]: 889 nM
GI50 [39]: 1480 nM
TGI [39]: 3220 nM
GI50 [40]: 1640 nM
TGI [40]: 3100 nM
GI50 [41]: 2060 nM
TGI [41]: 11300 nM
GI50 [42]: 202 nM
TGI [42]: 442 nM
GI50 [43]: 1200 nM
TGI [43]: 2820 nM
GI50 [44]: 1270 nM
TGI [44]: 2540 nM
GI50 [45]: 306 nM
TGI [45]: 1120 nM
GI50 [46]: 219 nM
TGI [46]: 503 nM
GI50 [47]: 473 nM
TGI [47]: 1910 nM
GI50 [48]: 596 nM
TGI [48]: 1390 nM
GI50 [49]: 121 nM
TGI [49]: 8280 nM
GI50 [50]: 863 nM
TGI [50]: 3900 nM
GI50 [51]: 172 nM
TGI [51]: 375 nM
GI50 [52]: 1260 nM
TGI [52]: 2790 nM
GI50 [53]: 268 nM
TGI [53]: 706 nM
GI50 [54]: 299 nM
TGI [54]: 734 nM
GI50 [55]: 212 nM
TGI [55]: 428 nM
GI50 [56]: 671 nM
TGI [56]: 1970 nM
GI50 [57]: 223 nM
TGI [57]: 564 nM
GI50 [58]: 189 nM
TGI [58]: 369 nM
